The source of these data is patent publication US7135292B2, “Analysis and modification of gene expression in marine invertebrate cells” (Harbor Branch Oceanographic Institution, Inc., priority 2002, dated 2006).

The test system of test [1] is Axinella corrugata cell cultures. Put plainly: Fluorescent assays of DNA and protein content in PHA-treated cultures. Particulars: 6 replicate comparisons, observed between 6 and 18 hours after treatment. It counts as cell-based. The source says: Sponge Cells. Cells were obtained from cryopreserved stocks at Harbor Branch Oceanographic Institution. All cells were derived from Axinella corrugata specimens collected in the waters of Florida, the Bahamas, and the Caribbean Sea, and were cryopreserved according to Pomponi et al. (Pomponi et al. 1997b supra). This sponge is relatively common and easy to collect, amenable to culture efforts, and produces the bioactive compound, stevensine, in vitro (Pomponi et al. 1997b supra). Enriched fractions of dissociated sponge cells were prepared, cryopreserved, and thawed according to previously published methods (Pomponi et al. 1997b supra). Cells were incubated at 22–25° C. in a growth medium consisting of a modified and supplemented commercial formulation (Willoughby and Pomponi 2000 supra). The length of the incubation period was based on my unpublished observation of elevated DNA and protein contents (9%, P=0.034, and 9%, P=0.038, respectively) in PHA-treated cultures, according to fluorescent assays of 6 replicate comparisons (Willoughby and Pomponi 2000 supra). Since the effects were observed between 6 and 18 hours after treatment, cells were cultured for 12-hour periods representing the center point of the period of observed changes. […]

For test [2] the test system is unchanged. Put plainly: PCR verification of cdc10 and calcineurin B expression. The class given is cell-based. The note with it: two specimens. Here is the method: cDNA Preparation. cDNA was prepared as described in the array experiments, using unlabeled dCTP instead of the α-^33P dCTP. The final product was then diluted 25-fold in water, loaded onto a DNA recovery column (Zymo Research D4001) and washed according to the manufacturer's protocol followed by elution with four consecutive 25-μl aliquots of nuclease free water. The procedure was then repeated for 40-μl aliquots, with a final elution in two aliquots of 20 μl, to produce twice-washed cDNA. Final template solution was prepared from 10 μl of twice-washed cDNA by addition of 80 μl water and precipitation with 30 μl 5M ammonium acetate and 250 μl ethanol at −20° C. for 30 minutes. Samples were centrifuged at 4° C. for 30 minutes at 10,000×g. Pellets were washed twice with 70% ethanol and air-dried for 15 minutes prior to resuspension in 20 μl nuclease free water. For the -RT control reactions, RNA/DNA template amounts were calculated volumetrically, to correspond with the volume of final template used in each reaction. Since some loss of cDNA can be expected for each of the purification steps, the volume of template used in the -RT control reactions likely exceeds that used in the corresponding test reactions, resulting in overestimation of the possible contribution of DNA background signals, acting as a conservative control.
Primers. […]

On to phytohemagglutinin [PHA], for which the “elevated DNA content in PHA-treated cultures” value in test [1] (P=0.034) was 9%. The “elevated protein content in PHA-treated cultures” value in test [1] (P=0.038) was 9%. In addition, the “cdc10 expression by PCR, PHA treated vs untreated” value in test [2] (FIG. 9A) is on record as “up-regulation”. Moreover, the “calcineurin B expression by PCR, PHA treated vs untreated” value in test [2] (FIG. 9B) is “down-regulation”.
